Measured values: PubChem BioAssay AID1996
In brackets after ≈: the same amount, converted by molar mass.

conditions: buffer; pH 7.4; 200.0 µM

Row | SMILES | solubility kinetic
1 | O=C(NC1CCS(=O)(=O)C1)c1ccc(Br)o1 (stereo not given) | 32.2 µg/mL (≈ 104 µM)
2 | CNc1nc(NCc2ccccc2)c2ccccc2n1.Cl | 37 µg/mL
3 | CCN(Cc1ccccc1)C(=O)CSc1nncn1C | > 43.6 µg/mL
4 | CC(CC(=O)OCC(=O)NC1CCS(=O)(=O)C1)c1ccccc1 (stereo not given) | > 50.9 µg/mL
5 | CCc1c(C)sc(NC(=O)c2ccco2)c1C#N | 17 µg/mL (≈ 65.3 µM)
6 | CC(C)(C)C(=O)COC(=O)C1=NN(c2ccccc2)C(=O)CC1 | > 47.5 µg/mL
7 | Cn1cc(CC(=O)NCc2ccc(F)cc2)c2ccccc21 | > 44.5 µg/mL
8 | Cc1ccc(S(=O)(=O)N2CCN(C(=O)COC(=O)CNC(=O)c3ccc(C(C)(C)C)cc3)CC2)c(C)c1 | 16.5 µg/mL (≈ 31.2 µM)
9 | CC(=O)c1sc(NC(=O)c2ccc(Br)o2)nc1C | 12.8 µg/mL (≈ 38.9 µM)
10 | CN1CCN(S(=O)(=O)c2ccc3c(c2)oc(=O)n3C)CC1 | > 46.7 µg/mL
11 | COc1ccc(NC(=O)CNc2ccc(C#N)cc2)cc1 | > 42.2 µg/mL
12 | O=C(NCCc1ccc(F)cc1)C1CCCO1 (stereo not given) | 27.6 µg/mL (≈ 116 µM)
13 | CC(=O)C1=C(O)C(=O)N(c2nccs2)C1c1ccccc1F (stereo not given) | > 47.7 µg/mL
14 | O=C(NCC(=O)N1CCCC(C(F)(F)F)C1)c1ccc(Oc2ccccc2)cc1 (stereo not given) | 36.3 µg/mL (≈ 89.3 µM)
15 | O=C(N1CCN(Cc2ccc3c(c2)OCO3)CC1)C(Cl)(Cl)Cl | 37.6 µg/mL (≈ 103 µM)
16 | O=C(Cc1ccc(F)cc1)OCN1C(=O)c2ccccc2C1=O | 39.8 µg/mL (≈ 127 µM)
17 | Cc1ccc2[nH]cc(S(=O)(=O)c3ccc(C)c(C)c3)c(=O)c2c1 | < 0.7 µg/mL
18 | Cc1cc(O)ccc1NS(=O)(=O)c1ccc2c3c(cccc13)C(=O)N2 | 48.8 µg/mL (≈ 138 µM)
19 | CCCC/C=C1\CCc2c([nH]c3ccccc23)C1=O | 2 µg/mL (≈ 7.89 µM)
20 | CC(C)On1c(SCC(=O)N(C)C)nc2ccccc2c1=O | > 48.2 µg/mL

Row | SMILES | solubility kinetic
21 | Cc1ccc(S(=O)(=O)N2CC(C(=O)O)Oc3ccccc32)cc1 (stereo not given) | > 50 µg/mL
22 | CCc1nc2ccccc2n1CC(=O)Nc1cc(C)on1 | > 42.6 µg/mL
23 | CC(=O)SC1CC(=O)N(c2ccc(C(C)(C)C)cc2)C1=O (stereo not given) | 5.7 µg/mL (≈ 18.7 µM)
24 | OC1CCCN(CC(O)c2ccccc2)C1 (stereo not given) | 25 µg/mL (≈ 113 µM)
25 | COc1ccc(CCNCc2sccc2C)cc1OC.Cl | 36 µg/mL
26 | Cc1nc(=O)c(-c2ccccc2)c(C)n1-c1ccc(Br)cc1 | > 53.3 µg/mL
27 | O=C(CCc1nc2ccccc2c(=O)[nH]1)N1CCN(c2ccccc2Cl)CC1 | 3.2 µg/mL (≈ 8.06 µM)
28 | CC(C)CC(NC(=O)C1CCC(C)CC1)C(=O)NCc1ccco1 (stereo not given) | 25.2 µg/mL (≈ 75.3 µM)
29 | CCCCN(C)c1c(N2CCC(C(=O)OCC)CC2)c(=O)c1=O | > 48.4 µg/mL
30 | Cc1cc(N2CCOCC2)nc2ccc(NC(=S)N3CCCCC3C)cc12 (stereo not given) | 41.5 µg/mL (≈ 108 µM)
31 | Br.Cn1ccnc1SCC(=O)c1ccc(Cl)cc1 | 48.9 µg/mL
32 | Cc1ccc(C)c(NC(=O)Cn2cc(C(=O)C3CC3)c3ccccc32)c1 | < 0.4 µg/mL
33 | Cc1onc(-c2ccccc2)c1C(=O)N=C(N)c1ccc(C(F)(F)F)cc1 | < 0.3 µg/mL
34 | Cc1ccc(CCNC(=O)C2CCCN(S(C)(=O)=O)C2)cc1 (stereo not given) | > 48.7 µg/mL
35 | Cc1nc(-c2ccccc2)sc1C(=O)/C=C/N(C)C | 36.3 µg/mL (≈ 133 µM)
36 | Nc1cc(=O)[nH]c(SCC(=O)Nc2cc([N+](=O)[O-])ccc2Cl)n1 | 4.4 µg/mL (≈ 12.4 µM)
37 | CCOC(=O)N1CCN(C(=O)Cc2ccccc2OC)CC1 | > 46 µg/mL
38 | CC(OC(=O)c1cccc([N+](=O)[O-])c1)C(=O)NCc1ccc2c(c1)OCO2 (stereo not given) | 22.4 µg/mL (≈ 60.2 µM)
39 | CC(C(=O)N1CCCCCC1)N(c1ccc(Cl)cc1)S(C)(=O)=O (stereo not given) | 46.8 µg/mL (≈ 130 µM)
40 | CCC1CN(C(=O)Nc2cccc(C)c2)c2cc(C)ccc2O1 (stereo not given) | 7.5 µg/mL (≈ 24.2 µM)

Row | SMILES | solubility kinetic
41 | O=C(O)CN1C(=O)c2cccc3c(Br)ccc1c23 | > 45.9 µg/mL
42 | O=C(Nc1ccccc1)c1cc([N+](=O)[O-])ccc1N1CCCCC1 | 1.7 µg/mL (≈ 5.22 µM)
43 | COc1cc(F)ccc1S(=O)(=O)NCc1cccnc1 | > 44.4 µg/mL
44 | O=C(NCCCN1CCOCC1)C(=O)NCc1ccccc1 | > 45.8 µg/mL
45 | COc1cc(OC)c(OC)cc1/C=C1/C(=O)N=C(N)N1C | 34.5 µg/mL (≈ 118 µM)
46 | COc1cc(OC)cc(C(=O)NCCc2cnc[nH]2)c1 | > 41.3 µg/mL
47 | CN1CCN(S(=O)(=O)c2ccc(Cl)cc2)CC1 | 37.8 µg/mL (≈ 138 µM)
48 | CCC(Oc1ccccc1F)C(=O)NCCCn1ccnc1 (stereo not given) | > 45.8 µg/mL
49 | Cc1oc(C(C)(C)C)cc1C(=O)N1CCN(c2ccc(C(F)(F)F)cn2)CC1 | 6.4 µg/mL (≈ 16.2 µM)
50 | CCOc1ccc(S(=O)(=O)NCCCn2ccnc2)cc1 | 45.4 µg/mL (≈ 147 µM)
51 | CC(=O)Nc1ccc(N=Cc2c(O)ccc3ccccc23)cc1 | 7.6 µg/mL (≈ 25 µM)
52 | CCN(Cc1nc(-c2ccccc2)no1)C(=O)c1ccoc1C | 40.2 µg/mL (≈ 129 µM)
53 | O=C(O)C1C2CCC(C2)C1C(=O)NCCc1cccc(Cl)c1 (stereo not given) | > 48.3 µg/mL
54 | CC(=O)c1ccc(N2CCN(C3CCC(C(C)(C)C)CC3)CC2)cc1 (stereo not given) | 0.8 µg/mL (≈ 2.34 µM)
55 | CC(C)(C)NC(=O)NCc1ccco1 | > 29.4 µg/mL
56 | COc1cc(Br)c(Br)cc1N | 14.7 µg/mL (≈ 52.3 µM)
57 | CS(=O)(=O)N1CCN(C(=O)CSc2ccccc2)CC1 | > 47.2 µg/mL
58 | CSc1ccc(NC(N)=S)cc1 | > 29.7 µg/mL
59 | Cc1ccc(O)c(CO)n1 | > 20.9 µg/mL
60 | Cc1cccc(NC(=O)NCc2ccc3c(c2)OCO3)c1 | 1.6 µg/mL (≈ 5.63 µM)
